Activity calls are given as the source filed them. No rule for the calls is given here. Some results are limits rather than exact numbers.

The experiment concerns the target glucose-6-phosphate dehydrogenase-6-phosphogluconolactonase (Plasmodium falciparum 3D7). In words: PfG6PD enzyme inhibitors, direct NADPH readout, dose response, orthogonal assay, biochemical, end-point NADPH detection (AID 540252). As to conditions: purified PfG6PD enzyme.
One may read the IC50 as the concentration at which inhibition is half-maximal. Regarding `Cc1ccc(NC(=O)c2ccc(Cl)c(N3C(=O)C=CC3=O)c2)cc1`, the IC50 is 33.4 µM.
For the molecule `CCN1CCCC1CNC(=O)c1ccc2c(c1)NC(=O)/C(=C\c1ccccc1F)S2` (stereo unspecified), the IC50 is > 80 µM (inactive).
Next, `O=C(NC1=CC(=O)c2ccccc2C1=O)c1ccccc1`: > 80 µM (inactive).
Next, `Cc1ccc(S(=O)(=O)N(C)C)cc1NC(=O)CSc1nc2ncc(Cl)cc2[nH]1`: > 80 µM (inactive); `O=c1c2cc([N+](=O)[O-])ccc2sn1-c1ccccc1`: 13.9 µM.
Next, `CCOC(=O)c1c2ccc(OCC(=O)NN)cc2n2ccccc12`: > 80 µM (inactive); `COC1=C(Br)C(=O)c2nc(C)ccc2C1=O`: > 80 µM (inactive).
With `CC(=O)Nc1cc([N+](=O)[O-])ccc1OCc1ccccc1`, the IC50 was > 80 µM (inactive).
Next, `Cc1nc(COC(=O)c2cc(O)c3ccccc3c2O)cs1`: > 80 µM (inactive); `Cc1nnc(N/N=C/c2ccc(-c3ccccc3F)o2)n1N`: > 80 µM (inactive).
Next, `CC(=O)Nc1ccc2c(=O)n(-c3ccccc3)sc2c1`: 13.8 µM.
As for `CCOC(=O)Cc1cc(=O)n2[nH]c(C(C)(C)C)cc2n1`, the IC50 is > 80 µM (inactive).
Next, `Cc1cc(C)c[n+](C2=C([O-])c3ccccc3C(=O)/C2=N\S(=O)(=O)c2cccs2)c1`: > 80 µM (inactive).
In the case of `Cc1cc(SCC(=O)N/N=C/c2ccco2)nc2ccccc12`, the IC50 was > 80 µM (inactive).
Turning to `CC(=O)Nc1ccc2sn(-c3ccccc3)c(=O)c2c1`, the IC50 is 18.2 µM.
With `O=C(CSc1nc2cc(Cl)ccc2s1)c1ccco1`, the IC50 is > 80 µM (inactive).
Next, `COc1cc(N2C(=O)C=CC2=O)ccc1N1C(=O)C=CC1=O`: 16.5 µM; `CCC1(C)CC(C(N)=S)CCO1` (stereo unspecified): > 80 µM (inactive); `CN=c1scc(C)n1/N=C/c1ccc(O)c(O)c1O`: > 80 µM (inactive).
Next, `CC1=CC(=NOC(=O)/C=C/c2ccccc2)C=C(C)C1=O`: > 80 µM (inactive); `COc1cc(N)c2ncsc2c1`: > 80 µM (inactive).
For the molecule `O=C(Nc1nc(-c2ccncc2)cs1)C1COc2ccccc2O1` (stereo unspecified), the IC50 is > 80 µM (inactive).
Next, `CC(=O)c1cccc(NC(=O)c2cnn(-c3ccccc3)c2C)c1`: > 80 µM (inactive); `COc1ccc(C(=O)/C=C2\Sc3ccccc3N2C)cc1`: > 80 µM (inactive); `CN(C)c1ccc(C=c2c3cc(O)ccc3n3c2cc(-c2ccccc2)[n+]3C)cc1`: > 80 µM (inactive).
Regarding `CCOC(=O)c1ccc(-n2c(N)c(C(=O)NCC3CCCO3)sc2=S)cc1` (stereo unspecified), the IC50 is > 80 µM (inactive).
As for `Cc1cc(C)c(NC(=S)NCC2CCN(C(C)c3ccccc3)C2)c(C)c1` (stereo unspecified), the IC50 is 64.1 µM.
Take `O=c1[nH]sc2cc(F)ccc12`: the IC50 is > 80 µM (inactive).
`COC1=C(OC)C(=O)C(Sc2ccc3ccccc3c2)=CC1=O`: the concentration for half-maximal inhibition (IC50) is 30.2 µM.
Turning to `CC1(C)CN(c2ccccc2)N(C(=O)c2ccc(C#N)cc2)C1=O`, the IC50 was > 80 µM (inactive).
Consider `Cc1c(Cl)c([N+](=O)[O-])nn1Cc1ccc(C(=O)N/N=C\c2cccc(Br)c2)o1`, for which the IC50 was > 80 µM (inactive).
Next, `NS(=O)(=O)c1ccc(N/N=C/c2ccc(O)c(O)c2O)c([N+](=O)[O-])c1`: 36.3 µM; `Cc1ccc(NC(=O)c2cc(N3C(=O)C=CC3=O)ccc2Cl)cc1C`: 49.2 µM; `COc1cc(/C=C2\SC(c3ccc(C)cc3)=NC2=O)cc(OC)c1O`: > 80 µM (inactive).
Next, `COc1cccc(-c2c(C(=O)N/N=C/c3ccc(C)o3)nnn2-c2nonc2N)c1`: > 80 µM (inactive).
Next, `COc1cc(SSc2cc(OC)cc([N+](=O)[O-])c2N)c(N)c([N+](=O)[O-])c1`: 13.1 µM; `Clc1cccc(Cl)c1CNc1ccc(N2CCCC2)cc1`: > 80 µM (inactive).
In the case of `COc1ccc(/C=C/c2nc3ccccc3n2Cc2ccc(OC)c(OC)c2)cc1`, the IC50 is > 80 µM (inactive).
Take `CCN1CCN(C(=S)c2ccc(Cl)c(Cl)c2)CC1`: the IC50 is > 80 µM (inactive).
Next, `Cc1ccc(NC(=O)c2cc(C)n(-c3ccccc3)c2C)cc1`: > 80 µM (inactive); `O=c1c2cc(F)ccc2sn1-c1ccc(F)cc1`: 25.5 µM; `CN(C)c1cccc2c1c(NC(=O)c1ccc(F)cc1)nn2C`: > 80 µM (inactive).
Next, `O=C(CCC(=O)OCC(=O)c1ccc([N+](=O)[O-])cc1)Nc1ccccc1Cl`: 53 µM; `CN1CCc2cc(O)cc3c2[C@H]1Cc1ccc(O)c(O)c1-3`: > 80 µM (inactive).
In the case of `Cc1cc(C)c2c(=N)c3ccccc3n(CCCCCCCCn3c4ccccc4c(=N)c4c(C)cc(C)nc43)c2n1`, the IC50 is > 80 µM (inactive).
Turning to `O=[N+]([O-])c1ccc(-[n+]2ccc3ccccc3c2)c([N+](=O)[O-])c1`, the IC50 was > 80 µM (inactive).
Next, `Cc1ccc(NC(=O)Cn2sc3nc(C)cc(C)c3c2=O)c(Cl)c1`: > 80 µM (inactive); `CN1CCN(C(=S)c2ccc([N+](=O)[O-])cc2)CC1`: 65.5 µM.
Next, `CCNc1nc(NC(C)C)nc(NS(=O)(=O)c2ccc(Cl)cc2)n1`: > 80 µM (inactive).
Turning to `O=C(CSc1nc2ccccc2[nH]1)NC1CCCc2ccccc21` (stereo unspecified), the IC50 is > 80 µM (inactive).
For the molecule `Cc1ccsc1/C=N\NC(=O)CC(=O)NCc1ccccc1`, the IC50 is > 80 µM (inactive).
Next, `CCCCOc1ccc(Cc2n[nH]c(=S)n2N)cc1`: > 80 µM (inactive); `CCCn1cc(S(=O)(=O)CC(=O)Nc2ccc(OC)cc2OC)c2ccccc21`: > 80 µM (inactive).
Regarding `O=C(Nc1nnc(C2CC2)s1)c1ccc(Cl)nc1`, the IC50 is > 80 µM (inactive).
With `Cc1ccc(S(=O)(=O)C=CS(=O)(=O)c2ccc(C)cc2)cc1`, the concentration for half-maximal inhibition (IC50) is 33.6 µM.
Next, `CCn1c(SCC(=O)Nc2ccccc2OC)nnc1-c1cnccn1`: > 80 µM (inactive).
As for `COc1cc(/C=C2\SC(c3ccc(C)cc3)=NC2=O)ccc1O`, the IC50 was > 80 µM (inactive).
As for `CC(C)Cn1c([N+](=O)[O-])nc2c1c(=O)[nH]c(=O)n2C`, the IC50 is > 80 µM (inactive).
Next, `CC(Cc1ccc(O)c(O)c1)C(C)Cc1ccc(O)c(O)c1` (stereo unspecified): 68.4 µM; `O=C(Cn1sc2ccccc2c1=O)NC12CC3CC(CC(C3)C1)C2`: 15.1 µM; `COc1ccc(N=C2C(=S)N(c3ccc(OC)cc3)C(=NS(=O)(=O)c3ccccc3)N2c2ccccc2)cc1`: > 80 µM (inactive).
With `CC(=O)Nc1ccc2c(c1)Cc1cc(N3C(=O)C=CC3=O)ccc1-2`, the 50% inhibitory concentration (IC50) was 23.7 µM.
Next, `CCS(=O)(=O)N1CCN(c2ccc([N+](=O)[O-])c(NC(C)c3ccccc3)c2)CC1` (stereo unspecified): > 80 µM (inactive).
Next, `Cc1ccc(-c2csc(NC(=O)c3ccc(Br)cc3)c2C(=O)O)cc1`: > 80 µM (inactive); `O=c1[nH]c2ccccc2n2c(-c3ccccc3)nnc12`: > 80 µM (inactive).
Next, `COc1cc(NCc2ccccc2)c2ncn(Cc3ccccc3)c2c1`: > 80 µM (inactive).
